Patent US12398107B2, “Fungicidal nitroanilino substituted pyrazoles” (FMC Corporation, priority 2018, dated 2025)

Key:
Type in all cases: in vivo
Septoria tritici = assay: Test A: wheat leaf blotch, preventive spray on wheat seedlings; conditions: 50 ppm, 100 = 100% disease control, 0 = no control relative to controls
How it was run: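 Compounds were suspended in acetone/water (50/50) with 250 ppm PEG400 and sprayed to run-off on wheat seedlings. The next day the seedlings were inoculated with Septoria tritici spores, held 48 h at 24 °C in saturated humidity, then 17 days at 20 °C. Disease control was rated 0–100 relative to controls.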

[1] = test system: Puccinia recondita f. sp. tritici; assay: Test B: wheat leaf rust, preventive spray on wheat seedlings; conditions: 50 ppm, 100 = 100% disease control, 0 = no control relative to controls
How it was run: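 Compounds in acetone/water (50/50) with 250 ppm PEG400, sprayed to run-off on wheat seedlings at stated ppm; inoculated next day with P. recondita spores. Held 24 h saturated at 20° C., then 7 days in growth chamber at 20° C.; rating 0–100 = % disease control vs controls.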

[2] = test system: Blumeria graminis f. sp. tritici; assay: Test C: wheat powdery mildew, preventive spray on wheat seedlings; conditions: 50 ppm, rated after 8 days, 100 = 100% disease control, 0 = no control
How it was run: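 Compound dissolved in acetone (3% of final volume), then suspended in 50/50 acetone/water with 250 ppm PEG400 and sprayed to run-off on wheat seedlings. Inoculated next day with B. graminis f. sp. tritici spore dust, kept 8 days at 20° C; visual rating, 100 = full control, 0 = none, relative to controls.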

Phakopsora pachyrhizi = assay: Test D: Asian soybean rust, preventive spray on soybean seedlings; conditions: 50 ppm, 100 = 100% disease control, 0 = no control
How it was run: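 Soybean seedlings sprayed to run-off with compound suspension (ppm, in 50/50 acetone/water with 250 ppm PEG400), inoculated next day with P. pachyrhizi spores, held 24 h saturated at 22°C then 8 days at 22°C. Visual rating 0-100% disease control relative to controls.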

Botrytis cinerea = assay: Test E: tomato Botrytis, preventive spray on tomato seedlings; conditions: 50 ppm, 100 = 100% disease control, 0 = no control
How it was run: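 Tomato seedlings sprayed to run-off with compound (ppm) in acetone/water with 250 ppm PEG400, then inoculated next day with B. cinerea spores. Held 48 h at 20 °C in saturated atmosphere, then 3 days at 24 °C. Visual rating 0–100% disease control relative to untreated controls.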

Alternaria solani = assay: Test F: tomato early blight, preventive spray on tomato seedlings; conditions: 50 ppm, 100 = 100% disease control, 0 = no control
How it was run: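 Compounds in acetone/water (50/50) with 250 ppm PEG400, dosed in ppm, sprayed to run-off on tomato seedlings; next day inoculated with A. solani spores. Held 48 h saturated at 27° C, then 3 days at 20° C; visual rating 0–100% disease control relative to controls.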

| SMILES | Test A disease control rating (wheat leaf blotch) (Septoria tritici) | Test B disease control rating (wheat leaf rust) [1] | Test C disease control rating (wheat powdery mildew) [2] | Test D disease control rating (Asian soybean rust) (Phakopsora pachyrhizi) | Test E disease control rating (tomato Botrytis) (Botrytis cinerea) | Test F disease control rating (tomato early blight) (Alternaria solani) |
| --- | --- | --- | --- | --- | --- | --- |
| Cc1nn(C)c(Nc2c(F)cccc2[N+](=O)[O-])c1-c1c(F)cc(C#N)cc1F [Compound 114] | 100% | 98% | 99% | 73% | 100% | 99% |
| Cc1nn(C)c(Nc2cccc(Cl)c2[N+](=O)[O-])c1-c1c(F)cccc1F [Compound 99] | 99% | 0% | 0% | 0% | 24% | 0% |
| COc1cc(F)c(-c2c(C)nn(C)c2Nc2ccc(OC)cc2[N+](=O)[O-])c(F)c1 [Compound 161] | 100% | 100% | 100% | 0% | 100% | 99% |
| Cc1nn(C)c(Nc2c(F)cc(Br)cc2[N+](=O)[O-])c1-c1ccc(F)cc1F [Compound 56] | 100% | 100% | 100% | 65% | 99% | 99% |
| CCc1nn(C)c(Nc2c(F)cc(Br)cc2[N+](=O)[O-])c1-c1ccc(F)cc1F [Compound 171] | 100% | 91% | 99% | 0% | 97% | 88% |
| Cc1nn(C)c(Nc2c(F)cc(F)cc2[N+](=O)[O-])c1-c1ccc(Cl)cc1F [Compound 13] | 100% | 99% | 97% | 19% | 68% | 89% |
| COc1ccc(Nc2c(-c3ccc(C#N)cc3Br)c(C)nn2C)c([N+](=O)[O-])c1 [Compound 180] | 100% | 98% | 79% | 0% | 99% | 98% |
| Cc1nn(C)c(Nc2c(F)cccc2[N+](=O)[O-])c1-c1c(F)cccc1Cl [Compound 25] | 100% | 100% | 99% | 98% | 100% | 98% |
| COc1ccc(-c2c(C)nn(C)c2Nc2ccccc2[N+](=O)[O-])c(Cl)c1 [Compound 140] | 99% | 86% | 31% | 0% | 100% | 93% |
